# Values of other authors in patent US8846607B2, “Particles for treatment of pulmonary infection” (President and Fellows of Harvard College, priority 2004, dated 2014).
# Test system: non-replicating TB
# Conditions: after one month, non-replicating TB in vitro
substance,measurement,value
capreomycin,log decrease in colony forming units (CFU),one to two
